Where a SMILES comes first, the peptide text is derived from it. A value given as a limit tells only on which side of the number the result lay.

The values that follow come from paper PMC8138313, “Identification, Selection and Immune Assessment of Liver Stage CD8 T Cell Epitopes From Plasmodium falciparum” (Frontiers in Immunology, 2021).

In one assay the target is HLA A*0301 (Homo sapiens, UniProt P04439). Briefly: HLA class I binding assay (cell-free competition, fluorescence polarization). On the technique in general: In fluorescence polarisation assays a small probe gives low polarisation when free and higher when bound to something large.
A further assay deals with HLA A*0201 (Homo sapiens, UniProt P04439, D140Y/D185E/D98H/E176V/E277Q/G131W/G231S/I119V/I121R/I166T/I218V/L300P/L318F/N151K/N90K/P208A/P217A/Q86G/Q94H/R138H/R169H/T345S). The description is as above.

At HLA A*0301, `CC(C)C[C@H](NC(=O)[C@H](C)N)C(=O)N[C@@H](CC(N)=O)C(=O)N[C@@H](CC(C)C)C(=O)N[C@@H](Cc1ccccc1)C(=O)N[C@@H](Cc1ccccc1)C(=O)N[C@@H](CCC(N)=O)C(=O)N[C@@H](CC(N)=O)C(=O)N[C@@H](CCCCN)C(=O)O` (H-ALNLFFQNK-OH) gave an IC50 of 1.14 µM.

Take `CC(C)C[C@H](NC(=O)[C@H](Cc1ccccc1)NC(=O)[C@H](CO)NC(=O)[C@H](Cc1ccccc1)NC(=O)[C@H](CS)NC(=O)[C@@H](N)Cc1ccccc1)C(=O)N[C@@H](CCCCN)C(=O)N[C@@H](CO)C(=O)N[C@@H](CO)C(=O)N[C@@H](CCCCN)C(=O)O` (H-FCFSFLKSSK-OH): at HLA A*0301, the IC50 was 9.21 µM. As for `CC(C)C[C@H](NC(=O)[C@H](CC(C)C)NC(=O)[C@H](CC(N)=O)NC(=O)[C@H](CC(C)C)NC(=O)[C@H](CC(C)C)NC(=O)[C@@H](N)Cc1ccccc1)C(=O)N[C@@H](CC(N)=O)C(=O)N[C@@H](CCC(=O)O)C(=O)N[C@@H](Cc1c[nH]cn1)C(=O)N[C@H](C(=O)O)C(C)C` (H-FLLNLLNEHV-OH), the IC50 at HLA A*0201 worked out at 1.68 µM. At HLA A*0201, `CC[C@H](C)[C@H](NC(=O)CN)C(=O)N[C@@H](C)C(=O)N[C@@H](CC(N)=O)C(=O)N[C@@H](CC(=O)O)C(=O)N[C@@H](CC(C)C)C(=O)N[C@@H](CO)C(=O)N[C@H](C(=O)N[C@@H](CC(C)C)C(=O)O)[C@@H](C)O` (H-GIANDLSTL-OH) had an IC50 of 5.73 µM. With `CSCC[C@H](NC(=O)[C@@H](NC(=O)[C@H](CC(=O)O)NC(=O)[C@H](Cc1c[nH]cn1)NC(=O)[C@@H]1CCCN1C(=O)[C@H](CO)NC(=O)[C@H](CC(C)C)NC(=O)CN)[C@@H](C)O)C(=O)N[C@@H](CCC(N)=O)C(=O)N[C@@H](CCCCN)C(=O)O` (H-GLSPHDTMQK-OH), the IC50 on HLA A*0301 was determined as 1.1 µM.

On HLA A*0301, `CC[C@H](C)[C@H](N)C(=O)N[C@@H](CC(C)C)C(=O)N[C@H](C(=O)N[C@@H](CO)C(=O)N[C@@H](CCCNC(=N)N)C(=O)N[C@@H](CC(C)C)C(=O)N[C@H](C(=O)N[C@@H](CC(C)C)C(=O)N[C@@H](CCCCN)C(=O)O)[C@@H](C)O)[C@@H](C)CC` (H-ILISRLTLK-OH) yielded an IC50 of 0.22 µM.

Take `CC[C@H](C)[C@H](N)C(=O)N[C@@H](CC(C)C)C(=O)N[C@@H](Cc1ccc(O)cc1)C(=O)N[C@@H](CCCCN)C(=O)N[C@@H](CC(N)=O)C(=O)N[C@H](C(=O)N[C@@H](CC(=O)O)C(=O)N[C@@H](CS)C(=O)N[C@H](C(=O)O)C(C)C)[C@@H](C)CC` (H-ILYKNIDCV-OH): at HLA A*0201, the IC50 worked out at 1.4 µM. For the compound `CC[C@H](C)[C@H](NC(=O)[C@H](Cc1ccccc1)NC(=O)[C@H](CO)NC(=O)[C@H](CO)NC(=O)[C@@H](NC(=O)[C@@H](N)CCCCN)[C@@H](C)CC)C(=O)N[C@@H](CC(N)=O)C(=O)N[C@@H](CCC(N)=O)C(=O)N[C@@H](CCCNC(=N)N)C(=O)N[C@@H](CCCCN)C(=O)O` (H-KISSFINQRK-OH), on HLA A*0301, the half-inhibitory concentration (IC50) is 0.316 µM. Still for that read-out and setting: the figure for `CSCC[C@H](NC(=O)[C@H](CC(N)=O)NC(=O)[C@H](Cc1ccc(O)cc1)NC(=O)[C@H](CC(N)=O)NC(=O)[C@H](CC(=O)O)NC(=O)[C@H](Cc1ccc(O)cc1)NC(=O)[C@H](CC(N)=O)NC(=O)[C@@H](N)CCCCN)C(=O)N[C@@H](CCCCN)C(=O)O` (H-KNYDNYNMK-OH) is 2.51 µM. Regarding `CC[C@H](C)[C@H](NC(=O)[C@H](CC(=O)O)NC(=O)[C@@H](NC(=O)[C@H](CO)NC(=O)[C@@H](NC(=O)[C@@H](N)CC(C)C)[C@@H](C)CC)[C@@H](C)O)C(=O)N[C@H](C(=O)N[C@@H](Cc1ccccc1)C(=O)N[C@@H](CC(C)C)C(=O)O)[C@@H](C)CC` (H-LISTDIIFL-OH), at HLA A*0201, the concentration for half-maximal inhibition (IC50) was found to be 0.614 µM.

On HLA A*0201, `CC(C)C[C@H](NC(=O)[C@H](CC(N)=O)NC(=O)[C@H](C)NC(=O)[C@H](C)NC(=O)[C@H](CCCCN)NC(=O)[C@H](CCC(N)=O)NC(=O)[C@H](Cc1ccccc1)NC(=O)[C@H](CC(C)C)NC(=O)[C@@H](N)CC(C)C)C(=O)O` (H-LLFQKAANL-OH) displayed an IC50 of 1.88 µM. `CC[C@H](C)[C@H](NC(=O)[C@H](CCSC)NC(=O)[C@H](CCCCN)NC(=O)[C@H](CCSC)NC(=O)[C@@H](NC(=O)[C@@H](N)CC(C)C)[C@@H](C)O)C(=O)N[C@@H](CC(N)=O)C(=O)N[C@@H](CC(N)=O)C(=O)N[C@@H](CCCCN)C(=O)O` (H-LTMKMINNK-OH) displayed an IC50 at HLA A*0301 of 0.472 µM. On the same count and under the same terms, the result for `CSCC[C@H](N)C(=O)N[C@@H](CC(=O)O)C(=O)N[C@@H](Cc1ccccc1)C(=O)N1CCC[C@H]1C(=O)N[C@@H](CCCCN)C(=O)N[C@@H](CC(C)C)C(=O)N[C@@H](CC(C)C)C(=O)N[C@@H](CC(N)=O)C(=O)N[C@@H](CCCCN)C(=O)O` (H-MDFPKLLNK-OH) reads 2.08 µM. Regarding `CC(C)C[C@H](NC(=O)[C@@H](N)CC(N)=O)C(=O)N[C@@H](Cc1ccccc1)C(=O)N[C@@H](CCC(=O)O)C(=O)N[C@@H](Cc1c[nH]c2ccccc12)C(=O)N[C@@H](CO)C(=O)N[C@@H](CCCCN)C(=O)N[C@H](C(=O)N[C@H](C(=O)O)C(C)C)[C@@H](C)O` (H-NLFEWSKTV-OH), the IC50 on HLA A*0201 was determined as 1.62 µM. With `CC(C)C[C@H](NC(=O)[C@H](CC(N)=O)NC(=O)[C@H](CC(C)C)NC(=O)[C@@H](N)CC(N)=O)C(=O)N[C@@H](CS)C(=O)NCC(=O)N[C@@H](CCCCN)C(=O)N[C@@H](Cc1ccc(O)cc1)C(=O)N[C@H](C(=O)N[C@@H](CCCCN)C(=O)O)[C@@H](C)O` (H-NLNLCGKYTK-OH; N-terminus assumed), the IC50 on HLA A*0301 is > 1000 µM. As to `CC[C@H](C)[C@H](NC(=O)[C@@H]1CCCN1C(=O)[C@H](Cc1ccc(O)cc1)NC(=O)[C@H](CC(=O)O)NC(=O)[C@H](Cc1ccccc1)NC(=O)[C@@H](NC(=O)[C@@H](N)CCC(N)=O)C(C)C)C(=O)N[C@@H](CCC(=O)O)C(=O)N[C@@H](CCCCN)C(=O)O` (H-QVFDYPIEK-OH), at HLA A*0301, the IC50 amounted to 1.57 µM. The same measure, in the same setting: the result for `CC[C@H](C)[C@H](NC(=O)[C@@H](N)CCCNC(=N)N)C(=O)N[C@@H](CO)C(=O)NCC(=O)N[C@@H](Cc1c[nH]c2ccccc12)C(=O)N[C@@H](CCCCN)C(=O)NCC(=O)N[C@@H](CC(=O)O)C(=O)N[C@@H](CC(N)=O)C(=O)N[C@@H](CCCCN)C(=O)O` (H-RISGWKGDNK-OH) reads 0.548 µM; that for `CC[C@H](C)[C@H](NC(=O)[C@H](CO)NC(=O)[C@H](CCCNC(=N)N)NC(=O)[C@H](CC(N)=O)NC(=O)[C@H](CC(N)=O)NC(=O)[C@H](CC(C)C)NC(=O)[C@@H](N)CCCNC(=N)N)C(=O)N[C@@H](Cc1ccc(O)cc1)C(=O)N[C@@H](CCCCN)C(=O)O` (H-RLNNRSIYK-OH), 0.224 µM. On the same count and under the same terms, the result for `CC(C)C[C@H](NC(=O)[C@H](Cc1ccccc1)NC(=O)[C@@H](NC(=O)[C@H](CCCCN)NC(=O)[C@H](CCCCN)NC(=O)[C@H](CO)NC(=O)[C@@H](N)CCCNC(=N)N)[C@@H](C)O)C(=O)N[C@H](C(=O)N[C@@H](CCCCN)C(=O)O)C(C)C` (H-RSKKTFLVK-OH) reads 0.409 µM. On to `CC[C@H](C)[C@H](NC(=O)[C@H](CO)NC(=O)[C@H](Cc1ccccc1)NC(=O)[C@@H](NC(=O)[C@H](CO)NC(=O)CNC(=O)[C@H](CO)NC(=O)[C@H](CO)NC(=O)[C@@H](N)CCCNC(=N)N)[C@@H](C)O)C(=O)N[C@@H](CCCCN)C(=O)O` (H-RSSGSTFSIK-OH), for which, on HLA A*0301, the IC50 is 0.326 µM. Still for that read-out and setting: the result for `CSCC[C@H](NC(=O)[C@H](CC(N)=O)NC(=O)[C@H](CCC(N)=O)NC(=O)[C@H](CC(N)=O)NC(=O)[C@H](C)NC(=O)[C@H](CCSC)NC(=O)[C@@H](N)[C@@H](C)O)C(=O)N[C@@H](CC(N)=O)C(=O)N[C@@H](Cc1ccc(O)cc1)C(=O)N[C@@H](CCCCN)C(=O)O` (H-TMANQNMNYK-OH) reads 0.209 µM.

As usually defined, the IC50 is the concentration that gives 50% inhibition.
